Test results: patent US12599583B2, “Small molecule GRB2 stabilizers for Ras map kinase inhibition” (Board of Regents, The University of Texas System, priority 2019, dated 2026)

Columns and labels:
[1] = molecular target: T1, GRB2 (Homo sapiens, UniProt P62993); assay: fluorescence anisotropy assay measuring GRB2 dimerization; assay type: biochemical; conditions: 100 nM Atto488 labeled GRB2; NB = No Binding (inability to induce GRB2 dimerization); read-out: EC50 anisotropy, compound induced GRB2 dimerization
Experimental: FIGS. 16A & 16B show fluorescence anisotropy assay data measuring GRB2 dimerization. 100 nM Atto488 labeled GRB2, which is below its dimer forming concentration, was used to identify compounds that induce dimerization. […] Note that NB represent compounds inability to induce GRB2 dimerization.
GRB2 dimerization was measured by fluorescence anisotropy assay. 100 nM Atto488 labeled GRB2, which is below its dimer forming concentration, was used to identify compounds that induce dimerization. […] Note that NB represent compounds inability to induce GRB2 dimerization.

[2] = molecular target: T1, GRB2; assay: GRB001 binding to GRB2 by MST; conditions: read-out: Kd, in vitro binding to GRB2 by MST
Experimental: In vitro binding of GRB001 to GRB2 with 50 μM Kd.

[3] = molecular target: T1, GRB2; assay: ITC binding to GRB2
From the text: Validation of in vitro binding of GRB001 to GRB2 with ITC as an alternative technique. […] GRB001 is able to bind GRB2 in two different conformations as reflected by the energy signature (inset).
FIGS. 14A-14C show ITC binding isotherm of GRB001 binding to GRB2 as in FIG. 4 (FIG. 14A).

[4] = molecular target: GRB2 dimer interface (Homo sapiens, UniProt P62993); assay: GRB2 monomer dimer equilibrium measurement; assay type: biochemical; conditions: presence of 100 μM GRB001
Experimental: Measurements of GRB2 monomer dimer equilibrium in the absence (lower, darker line) or presence of 100 μM GRB001 (upper, lighter line).

[5] = test system: RTK induced Ras signaling; assay: EGF and FGF induced MAPK activation in multiple cancer cell-lines; assay type: cell-based
From the text: GRB001 inhibits RAS/ERK activation while EGFR is fully active (FIG. 6D, top panel and the corresponding active EGFR in bottom panel)

[6] = test system: MDA-MB-231 triple negative breast cancer cells with G13D k-Ras mutation; assay: EGF induced MAPK activation in MDA-MB-231 cells; assay type: cell-based
[7] = test system: A549 (lung adenocarcinoma) cells with G12S KRAS mutation; assay: EGF induced MAPK activation in A549 cells; assay type: cell-based
[8] = test system: MDA-MB-231 TNBC; assay: apoptosis in MDA-MB-231 tumor cells; assay type: cell-based
From the text: GRB001 specifically kills triple negative breast cancer cells through caspase 3/7 mediated apoptosis (FIG. 8B).

[9] = test system: A549 lung cancer cells; assay: apoptosis in A549 tumor cells; assay type: cell-based
[10] = test system: OVCAR5; assay: EGF induced ERK activation in OVCAR5 cells; assay type: cell-based
[11] = test system: OVCAR8 cells; assay: EGF induced ERK activation in OVCAR8 cells; assay type: cell-based
[12] = test system: OVCAR5 cells; assay: nuclear fragmentation of OVCAR5 cells, high-throughput assay; assay type: cell-based; conditions: for quantitation of fragmented nucleus among Series-1 GRB001 analogues: OVCAR5 cells
From the text: The intensity of the red color represents nuclear condensation indicative of apoptotic cells.

[13] = Sulforhodamine B (SRB) cytotoxicity in HEK293T cells; assay type: cell-based; conditions: human
Experimental: (§1) Titrating concentrations of each compounds were used to treat cells for 72 hours. The data was normalized against 100% survival at the lowest inhibitor concentration. Graphs for IC50 were fitted to the four-parameter logistic equation using Prism8. Error bars show the percent coefficient of variation. Equivalent concentrations of DMSO were used as a negative control.
(§2) SRB cytotoxicity analysis was also performed using GRB152 in HEK293T and MDA-MB-231 cells. Cells were exposed to various concentrations of compound for 72 h before viability measurements.

[14] = Sulforhodamine B (SRB) cytotoxicity in MDA-MB-231 cells; assay type: cell-based; conditions: human
Experimental: as §1, §2

T1 sequence (P62993 whole entry): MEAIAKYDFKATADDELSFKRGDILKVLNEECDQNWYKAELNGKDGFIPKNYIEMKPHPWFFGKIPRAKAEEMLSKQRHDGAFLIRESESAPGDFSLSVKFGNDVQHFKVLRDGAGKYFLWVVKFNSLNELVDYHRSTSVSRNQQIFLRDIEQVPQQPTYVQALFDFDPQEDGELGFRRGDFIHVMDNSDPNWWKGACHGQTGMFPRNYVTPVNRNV
Sequence of GRB2 dimer interface (P62993 whole entry): as above

SMILES	EC50 [1] [µM]	further results
O=C1Cc2cc(NC(=O)Nc3ccc(F)cc3)ccc2N1 [GRB001]	49.7	Kd [2]: 50 µM; Kd ([3]; read-out: Kd, binding to GRB2 by ITC): 37 µM; effect on GRB2 monomer dimer equilibrium [4]: induce a Kd shift favoring dimerization; inhibition of EGF and FGF induced MAPK activation [5]: inhibits EGF and FGF induced MAPK activation; inhibition of EGF induced MAPK activation [6]: inhibits RTK induced Ras signaling; inhibition of EGF induced MAPK activation [7]: inhibits RTK induced Ras signaling; induction of apoptosis [8]: induces apoptosis; induction of apoptosis [9]: induces apoptosis; inhibition of EGF induced ERK activation [10]: inhibition of EGF induced ERK activation; inhibition of EGF induced ERK activation [11]: inhibition of EGF induced ERK activation
O=C1Cc2cc(NC(=O)Nc3ccc(Cl)c(Cl)c3)ccc2N1 [GRB002]	–	nuclear fragmentation of OVCAR5 cells ([12]; 500 nM compound): inducing nuclear fragmentation; quantitation of fragmented nucleus among Series-1 GRB001 analogues [12]: highest level of fragmented nucleus
O=C1Cc2cc(NC(=O)Nc3cccs3)ccc2N1 [GRB003]	9.7	–
O=C1Cc2cc(NC(=O)Nc3cccc(Cl)c3)ccc2N1 [GRB004]	26	–
O=C1Cc2cc(NC(=O)Nc3ccc4c(c3)OCO4)ccc2N1 [GRB005]	–	quantitation of fragmented nucleus among Series-1 GRB001 analogues [12]: highest level of fragmented nucleus
CN1C(=O)Cc2cc(NC(=O)Nc3ccc(F)cc3)ccc21 [GRB006]	2.7	–
COc1cccc(NC(=O)Nc2ccc3c(c2)CC(=O)N3C)c1 [GRB007]	15.7	–
CCN1C(=O)Cc2cc(NC(=O)Nc3ccc(Cl)c(Cl)c3)ccc21 [GRB009]	5.5	–
CCN1C(=O)Cc2cc(NC(=O)Nc3ccc(Cl)cc3)ccc21 [GRB010]	3.9	–
COc1ccccc1NC(=O)Nc1ccc2c(c1)CC(=O)N2 [GRB012]	4.5	–
Cc1cc(Br)ccc1NC(=O)Nc1ccc2[nH]c(=O)[nH]c2c1 [GRB020]	0.75	–
Cc1ccc(NC(=O)Nc2ccc3[nH]c(=O)[nH]c3c2)cc1 [GRB021]	1	–
O=C(Nc1ccc(Cl)c(Cl)c1)Nc1ccc2[nH]c(=O)[nH]c2c1 [GRB022]	2.1	–
O=C(Nc1cccc(F)c1)Nc1ccc2[nH]c(=O)[nH]c2c1 [GRB023]	3.1	–
O=C(Nc1cc(F)cc(F)c1)Nc1ccc2[nH]c(=O)[nH]c2c1 [GRB024]	4.6	–
N#Cc1cccc(NC(=O)Nc2ccc3[nH]c(=O)[nH]c3c2)c1 [GRB025]	6	–
Cc1ccc(NC(=O)Nc2ccc3[nH]c(=O)[nH]c3c2)c(C)c1 [GRB026]	8.2	–
CCOC(=O)CNC(=O)Nc1ccc2[nH]c(=O)[nH]c2c1 [GRB027]	10.1	–
O=C(Nc1cc(Cl)cc(Cl)c1)Nc1ccc2[nH]c(=O)[nH]c2c1 [GRB028]	10.2	–
Cc1ccc(NC(=O)Nc2ccc3[nH]c(=O)[nH]c3c2)c(C)c1 [GRB029]	16.3	–
Cc1cccc(NC(=O)Nc2ccc3[nH]c(=O)[nH]c3c2)c1C [GRB030]	37.3	–
O=C(Nc1ccc(F)c(Cl)c1)Nc1ccc2[nH]c(=O)[nH]c2c1 [GRB031]	40.3	–

SMILES	EC50 [1] [µM]	further results
COc1cc(NC(=O)Nc2ccc3[nH]c(=O)[nH]c3c2)cc(OC)c1OC [GRB032]	> 100	–
COC(=O)c1cccc(NC(=O)Nc2ccc3[nH]c(=O)[nH]c3c2)c1 [GRB033]	> 100	–
COc1cccc(NC(=O)Nc2ccc3[nH]c(=O)[nH]c3c2)c1 [GRB034]	264	–
O=C(Nc1cccc(C(F)(F)F)c1)Nc1ccc2[nH]c(=O)[nH]c2c1 [GRB046]	2	–
O=C(Nc1ccc(F)cc1)Nc1ccc2[nH]c(=O)[nH]c2c1 [GRB047]	9.7	–
O=c1[nH]c2ccc(NC(=S)Nc3ccc(Cl)c(Cl)c3)cc2[nH]1 [GRB048]	8.3	–
O=C(NCc1ccccc1)Nc1ccc2[nH]c(=O)[nH]c2c1 [GRB049]	11.5	–
O=c1[nH]c2ccc(NC(=S)NCCN3CCOCC3)cc2[nH]1 [GRB050]	56	–
COc1ccccc1NC(=O)Nc1ccc2[nH]c(=O)[nH]c2c1 [GRB051]	> 100	–
Cc1ccccc1NC(=O)Nc1ccc2[nH]c(S)nc2c1 [GRB058]	2	–
O=C(Nc1cc(F)cc(F)c1)Nc1ccc2[nH]c(S)nc2c1 [GRB060]	2.4	–
COc1cccc(NC(=O)Nc2ccc3[nH]c(S)nc3c2)c1 [GRB061]	129	–
Cc1cc(C)cc(NC(=O)Nc2ccc3[nH]c(S)nc3c2)c1 [GRB062]	78	–
N#Cc1ccc(NC(=O)Nc2ccc3[nH]c(S)nc3c2)cc1 [GRB063]	124	–
O=C(Nc1ccccc1)Nc1ccc2[nH]c(S)nc2c1 [GRB064]	116	–
O=C(Nc1ccccc1)Nc1ccc2[nH]c(SCc3ccc(F)cc3)nc2c1 [GRB065]	350	–
O=C(NCc1ccc(F)cc1)Nc1ccc2[nH]c(SCc3ccc(F)cc3)nc2c1 [GRB066]	246	–
Cc1cc(C)cc(NC(=O)Nc2ccc3[nH]c(SCc4ccc(F)cc4)nc3c2)c1 [GRB067]	48	–
O=C(Nc1ccc2ccccc2c1)Nc1ccc2[nH]c(SCc3ccc(F)cc3)nc2c1 [GRB070]	128	–
O=C(Nc1cc(F)cc(F)c1)Nc1ccc2[nH]c(SCc3ccc(F)cc3)nc2c1 [GRB071]	225	–
CC(=O)c1cccc(NC(=O)Nc2ccc3[nH]c(SCc4ccc(F)cc4)nc3c2)c1 [GRB073]	15	–
O=C(Cc1ccc(F)cc1)Nc1ccc2[nH]c(S)nc2c1 [GRB074]	205	–

SMILES	EC50 [1] [µM]	further results
O=C(Nc1cccc(F)c1)Nc1ccc2[nH]c(SCc3ccc(F)cc3)nc2c1 [GRB075]	23	–
COC(=O)c1cccc(NC(=O)c2ccc3[nH]c(S)nc3c2)c1 [GRB076]	62	–
CSc1nc2cc(C(=O)Nc3cccc(F)c3)ccc2[nH]1 [GRB077]	502	–
Cc1ccc(S(=O)(=O)Nc2ccc3[nH]c(S)nc3c2)cc1 [GRB078]	436	–
O=C1Cc2cc(NC(=O)Nc3cc(F)cc(F)c3)ccc2N1 [GRB085]	1.1	–
O=C1Cc2cc(NC(=S)Nc3ccc(Cl)c(Cl)c3)ccc2N1 [GRB086]	1.5	–
O=C1Cc2cc(NC(=O)Nc3cccc(Br)c3)ccc2N1 [GRB087]	4.6	–
O=C1Cc2cc(NC(=O)Nc3ccc(F)c(Cl)c3)ccc2N1 [GRB088]	8.3	–
Cc1cccc(NC(=O)Nc2ccc3c(c2)CC(=O)N3)c1C [GRB089]	9.1	–
Cc1cc(NC(=O)Nc2ccc3c(c2)CC(=O)N3)ccc1Cl [GRB090]	13	–
O=C1Cc2cc(NC(=O)NC(=O)c3ccccc3)ccc2N1 [GRB091]	13.3	–
O=C1Cc2cc(NC(=O)Nc3cc(Cl)cc(Cl)c3)ccc2N1 [GRB092]	13.8	Kd ([3]; read-out: Kd, ITC binding isotherm): 0.527 ± 0.367 µM
Cc1ccc(NC(=O)Nc2ccc3c(c2)CC(=O)N3)c(C)c1 [GRB093]	15.5	–
COC(=O)c1cccc(NC(=O)Nc2ccc3c(c2)CC(=O)N3)c1 [GRB094]	23	–
O=C1Cc2cc(NC(=S)Nc3cccc(Cl)c3)ccc2N1 [GRB095]	50.9	–
O=C(Nc1cc(Cl)cc(Cl)c1)Nc1ccc2[nH]c(=O)oc2c1 [GRB101]	13	–
O=C(Nc1cc(F)cc(F)c1)Nc1ccc2[nH]c(=O)oc2c1 [GRB102]	> 100	–
Cc1ccc(NC(=O)Nc2ccc3[nH]c(=O)oc3c2)cc1 [GRB104]	3.1	–
COc1cccc(NC(=O)Nc2ccc3[nH]c(=O)oc3c2)c1 [GRB105]	9.7	–
O=c1[nH]c2ccc(NC(=S)Nc3ccc(Cl)c(Cl)c3)cc2o1 [GRB152]	–	IC50 at 72 h [13]: 1.5 ± 0.5 µM; IC50 at 72 h [14]: 12.1 ± 1.5 µM
COc1ccc(Cl)cc1NC(=O)Nc1ccc2[nH]c(=O)oc2c1 [GRB161]	–	IC50 at 72 h [13]: > 120 µM
